Assay results reported in the supplement of paper PMC11061612.

Assays:
Carboplatin = compound: C1CC(C1)(C(=O)[O-])C(=O)[O-].N.N.[Pt+2] [Carboplatin]; conditions: max 10 µM
How it was run: (§1)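 Cancer cell lines were dosed for 72 hours (final DMSO typically 0.2%) after 24 hours at 37°C and 5% CO2 in 1536-well plates containing 7.5 μl DMEM/F12 or RPMI with 10% FBS. Viability came from CellTiter-Glo 2.0 luminescence, scaled between blank-well and DMSO-well means, and dose responses were fitted to a two-parameter logistic curve with a non-linear mixed effects model. The single-agent IC50 was obtained from this fit.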

AZD5363 = compound: C1CN(CCC1(C(=O)N[C@@H](CCO)C2=CC=C(C=C2)Cl)N)C3=NC=NC4=C3C=CN4 [AZD5363]; conditions: max 10 µM
How it was run: as §1

AZD1775 = compound: C=CCn1c(=O)c2cnc(Nc3ccc(N4CCN(C)CC4)cc3)nc2n1-c1cccc(C(C)(C)O)n1 [AZD1775]; conditions: max 3 µM
How it was run: as §1

Trametinib = compound: CC(=O)Nc1cccc(-n2c(=O)n(C3CC3)c(=O)c3c(Nc4ccc(I)cc4F)n(C)c(=O)c(C)c32)c1 [Trametinib]; conditions: max 1 µM
How it was run: as §1

Paclitaxel = compound: CC(=O)O[C@H]1C(=O)[C@@]2(C)[C@H]([C@H](OC(=O)c3ccccc3)[C@]3(O)C[C@H](OC(=O)[C@H](O)[C@@H](NC(=O)c4ccccc4)c4ccccc4)C(C)=C1C3(C)C)[C@]1(OC(C)=O)CO[C@@H]1C[C@@H]2O [Paclitaxel]; conditions: max 3 µM
How it was run: as §1

Palbociclib = compound: CC(=O)c1c(C)c2cnc(Nc3ccc(N4CCNCC4)cn3)nc2n(C2CCCC2)c1=O [Palbociclib]; conditions: max 10 µM
How it was run: as §1

AZD1390 = compound: CC(C)n1c(=O)n(C)c2cnc3cc(F)c(-c4ccc(OCCCN5CCCCC5)nc4)cc3c21 [AZD1390]; conditions: max 0.3 µM
How it was run: as §1

Venetoclax = compound: CC1(C)CCC(CN2CCN(c3ccc(C(=O)NS(=O)(=O)c4ccc(NCC5CCOCC5)c([N+](=O)[O-])c4)c(Oc4cnc5[nH]ccc5c4)c3)CC2)=C(c2ccc(Cl)cc2)C1 [Venetoclax]; conditions: max 1 µM
How it was run: as §1

Dasatinib = compound: CC1=C(C(=CC=C1)Cl)NC(=O)C2=CN=C(S2)NC3=CC(=NC(=N3)C)N4CCN(CC4)CCO [Dasatinib]; conditions: max 2 µM
How it was run: as §1

SG3199 = compound: CC1=CN2[C@@H](C1)C=NC3=CC(=C(C=C3C2=O)OC)OCCCCCOC4=C(C=C5C(=C4)N=C[C@@H]6CC(=CN6C5=O)C)OC [SG3199]; conditions: max 0.001 µM
How it was run: as §1

AZD2811 = compound: CCN(CCO)CCCOc1ccc2c(Nc3cc(CC(=O)Nc4cccc(F)c4)[nH]n3)ncnc2c1 [AZD2811]; conditions: max 1 µM
How it was run: as §1

SN-38 = compound: CCc1c2c(nc3ccc(O)cc13)-c1cc3c(c(=O)n1C2)COC(=O)[C@]3(O)CC [SN-38]; conditions: max 0.3 µM
How it was run: as §1

AZD0156 = compound: CN(C)CCCOc1ccc(-c2ccc3ncc4c(c3c2)n(C2CCOCC2)c(=O)n4C)cn1 [AZD0156]; conditions: max 3 µM
How it was run: as §1

AZD4320 = compound: CN(CC[C@H](CSC1=CC=CC=C1)NC2=C(C=C(C=C2)S(=O)(=O)NC(=O)C3=CC=C(C=C3)N4CCC(CC4)[C@H](C5=CC=CC=C5C6=CC=C(C=C6)Cl)O)S(=O)(=O)C(F)(F)F)CCO [AZD4320]; conditions: max 1 µM
How it was run: as §1

Alisertib = compound: COc1cc(Nc2ncc3c(n2)-c2ccc(Cl)cc2C(c2c(F)cccc2OC)=NC3)ccc1C(=O)O [Alisertib]; conditions: max 10 µM
How it was run: as §1

Etoposide = compound: COc1cc([C@@H]2c3cc4c(cc3[C@@H](O[C@@H]3O[C@@H]5CO[C@@H](C)O[C@H]5[C@H](O)[C@H]3O)[C@H]3COC(=O)[C@H]23)OCO4)cc(OC)c1O [Etoposide]; conditions: max 10 µM
How it was run: as §1

Gefitinib = compound: COc1cc2ncnc(Nc3ccc(F)c(Cl)c3)c2cc1OCCCN1CCOCC1 [Gefitinib]; conditions: max 10 µM
How it was run: as §1

Prexasertib = compound: COc1cccc(OCCCN)c1-c1cc(Nc2cnc(C#N)cn2)n[nH]1 [Prexasertib]; conditions: max 1 µM
How it was run: as §1

Doxorubicin = compound: COc1cccc2c1C(=O)c1c(O)c3c(c(O)c1C2=O)C[C@@](O)(C(=O)CO)C[C@@H]3O[C@H]1C[C@H](N)[C@H](O)[C@H](C)O1 [Doxorubicin]; conditions: max 1 µM
How it was run: as §1

AZD5153 = compound: COc1nnc2ccc(N3CCC(c4ccc(OCCN5CCN(C)C(=O)[C@H]5C)cc4)CC3)nn12 [AZD5153]; conditions: max 1 µM
How it was run: as §1

Lapatinib = compound: CS(=O)(=O)CCNCc1ccc(-c2ccc3ncnc(Nc4ccc(OCc5cccc(F)c5)c(Cl)c4)c3c2)o1 [Lapatinib]; conditions: max 10 µM
How it was run: as §1

AZD8186 = compound: C[C@@H](Nc1cc(F)cc(F)c1)c1cc(C(=O)N(C)C)cc2c(=O)cc(N3CCOCC3)oc12 [AZD8186]; conditions: max 10 µM
How it was run: as §1

Crizotinib = compound: C[C@@H](Oc1cc(-c2cnn(C3CCNCC3)c2)cnc1N)c1c(Cl)ccc(F)c1Cl [Crizotinib]; conditions: max 10 µM
How it was run: as §1

Savolitinib = compound: C[C@@H](c1ccc2nccn2c1)n1nnc2ncc(-c3cnn(C)c3)nc21 [Savolitinib]; conditions: max 1 µM
How it was run: as §1

AZD6738 = compound: C[C@@H]1COCCN1C2=NC(=NC(=C2)C3(CC3)[S@](=N)(=O)C)C4=C5C=CNC5=NC=C4 [AZD6738]; conditions: max 10 µM
How it was run: as §1

AZD5991 = compound: Cc1c2c(nn1C)CSCc1cc(n(C)n1)CSc1cc(c3ccccc3c1)OCCCc1c(C(=O)O)n(C)c3c-2c(Cl)ccc13 [AZD5991]; conditions: max 1 µM
How it was run: as §1

AZD7648 = compound: Cc1cc2ncnn2cc1Nc1ncc2c(n1)n(C1CCOCC1)c(=O)n2C [AZD7648]; conditions: max 10 µM
How it was run: as §1

Taselisib = compound: Cc1nc(-c2cn3c(n2)-c2ccc(-c4cnn(C(C)(C)C(N)=O)c4)cc2OCC3)n(C(C)C)n1 [Taselisib]; conditions: max 10 µM
How it was run: as §1

Selumetinib = compound: Cn1cnc2c(F)c(Nc3ccc(Br)cc3Cl)c(C(=O)NOCCO)cc21 [Selumetinib]; conditions: max 10 µM
How it was run: as §1

SRA737 = compound: N#Cc1cnc(Nc2cc(NC[C@H]3CNCCO3)c(C(F)(F)F)cn2)cn1 [SRA737]; conditions: max 10 µM
How it was run: as §1

MK-2206 = compound: NC1(c2ccc(-c3nc4ccn5c(=O)[nH]nc5c4cc3-c3ccccc3)cc2)CCC1 [MK-2206]; conditions: max 10 µM
How it was run: as §1

Gemcitabine = compound: Nc1ccn([C@@H]2O[C@H](CO)[C@@H](O)C2(F)F)c(=O)n1 [Gemcitabine]; conditions: max 0.3 µM
How it was run: as §1

[1] = compound: O=C(Nc1ccc2[nH]nc(-c3ccncc3)c2c1)[C@@H]1CCN(CC(=O)N2CCN(c3ccc(-c4ncccn4)cc3)CC2)C1; conditions: max 5 µM
How it was run: as §1

Olaparib = compound: O=C(c1cc(Cc2n[nH]c(=O)c3ccccc23)ccc1F)N1CCN(C(=O)C2CC2)CC1 [Olaparib]; conditions: max 10 µM
How it was run: as §1

5-Fluorouracil = compound: O=c1[nH]cc(F)c(=O)[nH]1 [5-Fluorouracil]; conditions: max 20 µM
How it was run: as §1

Row | Cell Line | IC50, cell viability 72 h (Carboplatin) | IC50, cell viability 72 h (AZD5363) | IC50, cell viability 72 h (AZD1775) | IC50, cell viability 72 h (Trametinib) | IC50, cell viability 72 h (Paclitaxel) | IC50, cell viability 72 h (Palbociclib) | IC50, cell viability 72 h (AZD1390) | IC50, cell viability 72 h (Venetoclax) | IC50, cell viability 72 h (Dasatinib) | IC50, cell viability 72 h (SG3199) | IC50, cell viability 72 h (AZD2811) | IC50, cell viability 72 h (SN-38) | IC50, cell viability 72 h (AZD0156) | IC50, cell viability 72 h (AZD4320) | IC50, cell viability 72 h (Alisertib) | IC50, cell viability 72 h (Etoposide) | IC50, cell viability 72 h (Gefitinib) | IC50, cell viability 72 h (Prexasertib) | IC50, cell viability 72 h (Doxorubicin) | IC50, cell viability 72 h (AZD5153) | IC50, cell viability 72 h (Lapatinib) | IC50, cell viability 72 h (AZD8186) | IC50, cell viability 72 h (Crizotinib) | IC50, cell viability 72 h (Savolitinib) | IC50, cell viability 72 h (AZD6738) | IC50, cell viability 72 h (AZD5991) | IC50, cell viability 72 h (AZD7648) | IC50, cell viability 72 h (Taselisib) | IC50, cell viability 72 h (Selumetinib) | IC50, cell viability 72 h (SRA737) | IC50, cell viability 72 h (MK-2206) | IC50, cell viability 72 h (Gemcitabine) | IC50, cell viability 72 h [1] | IC50, cell viability 72 h (Olaparib) | IC50, cell viability 72 h (5-Fluorouracil)
1 | CCK-81 (Colorectal Carcinoma) | > 10000 nM | > 10000 nM | 661 nM | 208 nM | 101 nM | > 10000 nM | > 300 nM | > 1000 nM | > 2000 nM | > 1 nM | > 1000 nM | 76.7 nM | > 3000 nM | > 1000 nM | > 10000 nM | > 10000 nM | 997 nM | 10.7 nM | > 1000 nM | 160 nM | 484 nM | > 10000 nM | 8320 nM | > 1000 nM | 1570 nM | 634 nM | > 10000 nM | 1180 nM | 9240 nM | 876 nM | > 10000 nM | 50.3 nM | 4810 nM | > 10000 nM | 7320 nM
2 | COLO-320-HSR (Colorectal Carcinoma) | > 10000 nM | > 10000 nM | 459 nM | > 1000 nM | 411 nM | > 10000 nM | > 300 nM | > 1000 nM | > 2000 nM | > 1 nM | > 1000 nM | > 300 nM | > 3000 nM | > 1000 nM | > 10000 nM | > 10000 nM | > 10000 nM | 232 nM | > 1000 nM | > 1000 nM | > 10000 nM | > 10000 nM | > 10000 nM | > 1000 nM | 7940 nM | 489 nM | > 10000 nM | > 10000 nM | > 10000 nM | > 10000 nM | > 10000 nM | 260 nM | > 5000 nM | > 10000 nM | > 20000 nM
3 | ECC10 (Gastric Carcinoma) | > 10000 nM | > 10000 nM | 1130 nM | 237 nM | 10.9 nM | > 10000 nM | > 300 nM | 230 nM | > 2000 nM | > 1 nM | 25.2 nM | 7.73 nM | > 3000 nM | 21.8 nM | 200 nM | 1860 nM | > 10000 nM | 324 nM | 131 nM | 139 nM | 6710 nM | > 10000 nM | 4920 nM | > 1000 nM | > 10000 nM | 713 nM | > 10000 nM | > 10000 nM | > 10000 nM | > 10000 nM | > 10000 nM | 50 nM | 375 nM | > 10000 nM | > 20000 nM
4 | IGR-37 (Melanoma) | > 10000 nM | > 10000 nM | 846 nM | 3.42 nM | 86.5 nM | > 10000 nM | > 300 nM | > 1000 nM | > 2000 nM | > 1 nM | > 1000 nM | 26.2 nM | > 3000 nM | > 1000 nM | > 10000 nM | > 10000 nM | > 10000 nM | 12.9 nM | 746 nM | 846 nM | > 10000 nM | > 10000 nM | > 10000 nM | > 1000 nM | 5360 nM | > 1000 nM | > 10000 nM | 4360 nM | 339 nM | 3480 nM | > 10000 nM | 45.9 nM | 361 nM | > 10000 nM | > 20000 nM
5 | KARPAS-422 (B-Cell Non-Hodgkin's Lymphoma) | > 10000 nM | 3560 nM | 768 nM | > 1000 nM | 957 nM | 3050 nM | > 300 nM | 644 nM | 1510 nM | > 1 nM | > 1000 nM | 17 nM | > 3000 nM | 230 nM | > 10000 nM | 3440 nM | > 10000 nM | 17.6 nM | 634 nM | 144 nM | > 10000 nM | 644 nM | > 10000 nM | > 1000 nM | 9320 nM | 206 nM | > 10000 nM | 4630 nM | > 10000 nM | > 10000 nM | 1070 nM | 92.2 nM | > 5000 nM | > 10000 nM | > 20000 nM
